Assay results reported in patent US20250170127A1, “RE-SENSITIZING MULTIDRUG-RESISTANT (MDR) GRAM-NEGATIVE BACTERIA TO COLISTIN USING IONOPHORES” (The Regents of the University of Colorado, a body corporate, priority 2022, published 2025).
Converted amounts (≈) assume the structure as drawn. Like-named read-outs stand apart in the source and are kept apart here.

How the values were obtained:
E. coli AR-0349 = experiment: MICs of a panel of 9 antibiotics with and without compound 3; format: cell-based; settings: for INT (S-R interpretation): CLSI 2021, M100, Ed 31; for MIC: antibiotic alone, multidrug-resistant E. coli; for MIC (+3): in the presence of 1 μg/mL of compound 3
E. coli AR-0493 [1] = experiment: Minimum re-sensitizing concentration (MRC) in the presence of colistin; format: cell-based; settings: in the presence of 2 μg/mL colistin, E. coli AR-0493
Description: These 10 compounds were tested for their MICs and minimum re-sensitizing concentrations (MRCs) in the presence colistin at 2 μg/mL in E. coli AR-0493.
The present inventors further conducted MRC screens of selected compounds from groups 2-5 in AR-0493. Compound were tested against AR-0493 with compound X+2 μg/mL Colistin.
All compounds were tested for their respective minimum resensitizing concentrations (MRCs) for colistin against E. coli. AR0493, a MDR strain from CDC and FDA Antibiotic Resistance Bank. […] For the symmetrical bisanilino series, 7a-p, electron-donating alkyl and alkoxy groups (entries 7a-g, Table 5) at various positions of the phenyl rings were investigated. […] Three asymmetric bisanilino analogs (7q-s, Table 5) were synthesized based on the SARs of the monoanilino analogs 8a-p (vide infra).
(§1) General Methods. MDR strains E. coli AR-0493, AR-0346, and AR-0538, Salmonella Enteritidis AR-0496, Salmonella Typhimurium AR-0635, K. pneumoniae AR-0497, A. baumannii AR-0300 and AR-0310 were all obtained from the CDC & FDA Antibiotic Resistance Isolate Bank. E. coli K-12 was a gift from the Copley lab (Department of MCD Biology, University of Colorado Boulder). HeLa cells were purchased from the ATCC. All bacterial strains were grown on trypticase soy agar supplemented with 5% sheep blood (BAP). Bacteria were then cultured in Luria-Bertani (LB) medium at 35° C. until they achieve the log phase before screening or antimicrobial testing using CAMHB media. MIC, MRC, and checkerboard analyses and mammalian growth inhibition analyses in Hela cells were performed as described previously. More details are given in Supporting information.

E. coli AR-0493 [2] = experiment: MIC, CLSI broth microdilution, substance alone; format: cell-based
Description: A MDR E. coli strain AR-0493 (a.k.a., ATCC BAA-3170) was obtained from the CDC and FDA Antibiotic Resistance Bank and used for the initial screen. […] Considering the difficulties on the discovery of novel antimicrobial reagents against Gram-negative bacteria, we chose to screen the fragment-based library of 3,200 compounds from TimTec (Tampa, FL). […] The screen used a modified broth microdilution assay.
These 10 compounds were tested for their MICs and minimum re-sensitizing concentrations (MRCs) in the presence colistin at 2 μg/mL in E. coli AR-0493. […] To evaluate their toxicity in mammalian cells, the present inventors treated human epithelial adenocarcinoma HeLa cells with each compound at a wide range of concentrations. […]
as §1

HeLa cells = experiment: in vitro; format: cell-based, human
Description: These 10 compounds were tested for their MICs and minimum re-sensitizing concentrations (MRCs) in the presence colistin at 2 μg/mL in E. coli AR-0493. […] To evaluate their toxicity in mammalian cells, the present inventors treated human epithelial adenocarcinoma HeLa cells with each compound at a wide range of concentrations.
To evaluate the mammalian toxicity of these analogs, Applicants tested them in cell viability assay using human cervical adenocarcinoma HeLa cells. Their respective half maximal growth inhibition concentration (GI50) was calculated using KaleidaGraph. The selectivity index (SI) for each compound was also calculated as the ratio of their GI50 and MRC. […] Therefore, Applicants selected two bisanilino analogs, 7l and 7m, that bear chlorines at the meta- and para-positions, respectively, of the phenyl groups for further characterization studies. […]. […] Their mammalian toxicities were also evaluated, and SIs calculated. […] Applicants we next explored the scope of analogs 71 and 7m their colistin-potentiating activity in 8 different MDR Gram negative bacteria with diverse genetic backgrounds and resistance mechanisms (Table 7). All strains were obtained from CDC and FDA Antibiotic Resistance Bank. For example, E. coli AR-0493 and K. pneumoniae AR-0497 carry the plasmid that contains the most prevalent mcr-1 gene. E. coli AR-0538, Salmonella Typhimurium AR-0539 and AR-0635 contain the mcr-2, 3, and 4 genes, respectively. These genes encode the phosphoethanolamine transferase, which was originated form the chromosome of A. baumannii, such as AR-0310. […]. A. baumannii AR-0310 appears more sensitive to these two compounds and the MICs of colistin was reduced to 0.25 μg/mL.
as §1

[3] = Escherichia coli, AR0349, read-out: MIC

## CC[C@H]1OC(=O)[C@H](C)[C@@H](O[C@H]2C[C@@](C)(OC)[C@@H](O)[C@H](C)O2)[C@H](C)[C@@H](O[C@@H]2O[C@H](C)C[C@H](N(C)C)[C@H]2O)[C@](C)(O)C[C@@H](C)CN(C)[C@H](C)[C@@H](O)[C@]1(C)O [Azithromycin]
E. coli AR-0349
  INT (S-R interpretation): R
  MIC (+3): >64 µg/mL
E. coli AR-0349; [3]
  MIC: > 64 µg/mL

## CC(C)(O/N=C(\C(=O)N[C@@H]1C(=O)N2C(C(=O)[O-])=C(C[n+]3ccccc3)CS[C@H]12)c1csc(N)n1)C(=O)O [Ceftazidime]
E. coli AR-0349
  INT (S-R interpretation): R
  MIC (+3): >64 µg/mL
E. coli AR-0349; [3]
  MIC: > 64 µg/mL

## O=C(O)c1cn(C2CC2)c2cc(N3CCNCC3)c(F)cc2c1=O [Ciprofloxacin]
E. coli AR-0349; [3]
  MIC: 32 µg/mL (≈ 96.6 µM)
E. coli AR-0349
  MIC (+3): 32 µg/mL

## Cc1cccc(Nc2nc3nonc3nc2O)c1 [Compound 4]
E. coli AR-0493 [1]
  MRC (minimum re-sensitizing concentration): did not show either antimicrobial or RMA activity
E. coli AR-0493 [2]
  MIC: did not show either antimicrobial or RMA activity

## c1ccc(Nc2nc3nonc3nc2Nc2ccccc2)cc1 [Compound 7a]
E. coli AR-0493 [1]
  MRC (minimum re-sensitizing concentration): 0.5 µg/mL
E. coli AR-0493 [2]
  MIC: >64 µg/mL
HeLa cells
  GI50: 4.4 µg/mL

## Cc1ccccc1Nc1nc2nonc2nc1Nc1ccccc1C [Compound 7b]
E. coli AR-0493 [1]
  MRC (minimum re-sensitizing concentration): 8 µg/mL

## Cc1cccc(Nc2nc3nonc3nc2Nc2cccc(C)c2)c1 [Compound 7c]
E. coli AR-0493 [1]
  MRC (minimum re-sensitizing concentration): 0.5 µg/mL
E. coli AR-0493 [2]
  MIC: >64 µg/mL
HeLa cells
  GI50: 1.5 µg/mL

## Cc1ccc(Nc2nc3nonc3nc2Nc2ccc(C)cc2)cc1 [Compound 7d]
E. coli AR-0493 [1]
  MRC (minimum re-sensitizing concentration): 0.5 µg/mL
E. coli AR-0493 [2]
  MIC: >64 µg/mL
HeLa cells
  GI50: 1.1 µg/mL

## COc1ccccc1Nc1nc2nonc2nc1Nc1ccccc1OC [Compound 7e]
E. coli AR-0493 [1]
  MRC (minimum re-sensitizing concentration): >64 µg/mL

## COc1cccc(Nc2nc3nonc3nc2Nc2cccc(OC)c2)c1 [Compound 7f]
E. coli AR-0493 [1]
  MRC (minimum re-sensitizing concentration): 2 µg/mL

## COc1ccc(Nc2nc3nonc3nc2Nc2ccc(OC)cc2)cc1 [Compound 7g]
E. coli AR-0493 [1]
  MRC (minimum re-sensitizing concentration): >64 µg/mL

## Fc1cccc(Nc2nc3nonc3nc2Nc2cccc(F)c2)c1 [Compound 7i]
E. coli AR-0493 [1]
  MRC (minimum re-sensitizing concentration): 0.5 µg/mL
E. coli AR-0493 [2]
  MIC: >64 µg/mL
HeLa cells
  GI50: 20 µg/mL

## Fc1ccc(Nc2nc3nonc3nc2Nc2ccc(F)cc2)cc1 [Compound 7j]
E. coli AR-0493 [1]
  MRC (minimum re-sensitizing concentration): 0.5 µg/mL
E. coli AR-0493 [2]
  MIC: >64 µg/mL
HeLa cells
  GI50: 9.4 µg/mL

## Clc1ccccc1Nc1nc2nonc2nc1Nc1ccccc1Cl [Compound 7k]
E. coli AR-0493 [1]
  MRC (minimum re-sensitizing concentration): 8 µg/mL

## FC(F)(F)Oc1ccccc1Nc1nc2nonc2nc1Nc1ccccc1OC(F)(F)F [Compound 7n]
E. coli AR-0493 [1]
  MRC (minimum re-sensitizing concentration): >64 µg/mL

## FC(F)(F)Oc1cccc(Nc2nc3nonc3nc2Nc2cccc(OC(F)(F)F)c2)c1 [Compound 7o]
E. coli AR-0493 [1]
  MRC (minimum re-sensitizing concentration): 0.25 µg/mL
E. coli AR-0493 [1]; listed as 57o
  MRC (minimum re-sensitizing concentration): 0.25 µg/mL
E. coli AR-0493 [2]
  MIC: >64 µg/mL
HeLa cells
  GI50: 43 µg/mL

## FC(F)(F)Oc1cccc(Nc2nc3nonc3nc2Nc2ccccc2)c1 [Compound 7q]
E. coli AR-0493 [1]
  MRC (minimum re-sensitizing concentration): 1 µg/mL

## Cc1cccc(Nc2nc3nonc3nc2Nc2cccc(OC(F)(F)F)c2)c1 [Compound 7r]
E. coli AR-0493 [1]
  MRC (minimum re-sensitizing concentration): 0.5 µg/mL
E. coli AR-0493 [2]
  MIC: >64 µg/mL
HeLa cells
  GI50: 12 µg/mL

## COc1ccccc1Nc1nc2nonc2nc1Nc1cccc(OC(F)(F)F)c1 [Compound 7s]
E. coli AR-0493 [1]
  MRC (minimum re-sensitizing concentration): >64 µg/mL

## Oc1nc2nonc2nc1Nc1ccccc1 [Compound 8a]
E. coli AR-0493 [1]
  MRC (minimum re-sensitizing concentration): >64 µg/mL

## Cc1ccccc1Nc1nc2nonc2nc1O [Compound 8b]
E. coli AR-0493 [1]
  MRC (minimum re-sensitizing concentration): 64 µg/mL

## Cc1cccc(Nc2nc3nonc3nc2O)c1 [Compound 8c]
E. coli AR-0493 [1]; listed as 8c (2)
  MRC (minimum re-sensitizing concentration): 8 µg/mL

## Cc1ccc(Nc2nc3nonc3nc2O)cc1 [Compound 8d]
E. coli AR-0493 [1]
  MRC (minimum re-sensitizing concentration): 64 µg/mL

## COc1ccccc1Nc1nc2nonc2nc1O [Compound 8e]
E. coli AR-0493 [1]
  MRC (minimum re-sensitizing concentration): 4 µg/mL
E. coli AR-0493 [2]
  MIC: >64 µg/mL

## COc1cccc(Nc2nc3nonc3nc2O)c1 [Compound 8f]
E. coli AR-0493 [1]
  MRC (minimum re-sensitizing concentration): 16 µg/mL

## COc1ccc(Nc2nc3nonc3nc2O)cc1 [Compound 8g]
E. coli AR-0493 [1]
  MRC (minimum re-sensitizing concentration): >64 µg/mL

## Oc1nc2nonc2nc1Nc1ccccc1F [Compound 8h]
E. coli AR-0493 [1]
  MRC (minimum re-sensitizing concentration): 64 µg/mL

## Oc1nc2nonc2nc1Nc1cccc(F)c1 [Compound 8i]
E. coli AR-0493 [1]
  MRC (minimum re-sensitizing concentration): 64 µg/mL

## Oc1nc2nonc2nc1Nc1ccc(F)cc1 [Compound 8j]
E. coli AR-0493 [1]
  MRC (minimum re-sensitizing concentration): 32 µg/mL

## Oc1nc2nonc2nc1Nc1ccccc1Cl [Compound 8k]
E. coli AR-0493 [1]
  MRC (minimum re-sensitizing concentration): 16 µg/mL

## Oc1nc2nonc2nc1Nc1cccc(Cl)c1 [Compound 8l]
E. coli AR-0493 [1]
  MRC (minimum re-sensitizing concentration): 16 µg/mL

## Oc1nc2nonc2nc1Nc1ccc(Cl)cc1 [Compound 8m]
E. coli AR-0493 [1]
  MRC (minimum re-sensitizing concentration): 32 µg/mL

## Oc1nc2nonc2nc1Nc1ccccc1OC(F)(F)F [Compound 8n]
E. coli AR-0493 [1]
  MRC (minimum re-sensitizing concentration): >64 µg/mL

## Oc1nc2nonc2nc1Nc1cccc(OC(F)(F)F)c1 [Compound 8o]
E. coli AR-0493 [1]
  MRC (minimum re-sensitizing concentration): 4 µg/mL
E. coli AR-0493 [2]
  MIC: >64 µg/mL
HeLa cells
  GI50: 24 µg/mL

## C[C@@H](O)[C@H]1C(=O)N2C(C(=O)O)=C(S[C@@H]3CN[C@H](C(=O)N(C)C)C3)[C@H](C)[C@H]12 [Meropenem]
E. coli AR-0349
  INT (S-R interpretation): S
  MIC (+3): 0.25 µg/mL
E. coli AR-0349; [3]
  MIC: 0.25 µg/mL (≈ 0.652 µM)

## CO[C@H]1/C=C/O[C@@]2(C)Oc3c(C)c(O)c4c(O)c(c(/C=N/N5CCN(C)CC5)c(O)c4c3C2=O)NC(=O)/C(C)=C\C=C\[C@H](C)[C@H](O)[C@@H](C)[C@@H](O)[C@@H](C)[C@H](OC(C)=O)[C@@H]1C [Rifampicin]
E. coli AR-0349
  INT (S-R interpretation): R
  MIC (+3): 16 µg/mL
E. coli AR-0349; [3]
  MIC: 16 µg/mL (≈ 19.4 µM)

## Cc1cccc(Nc2nc3nonc3nc2Cl)c1 [ST024336, reference compound]
E. coli AR-0493 [1]
  MRC (minimum re-sensitizing concentration): 2 µg/mL
E. coli AR-0493 [1]; listed as 1
  MRC (minimum re-sensitizing concentration): > 64 µg/mL
HeLa cells; HeLa cells, 24 hours
  GI50: 10 µg/mL

## CN(C)[C@@H]1C(O)=C(C(N)=O)C(=O)[C@@]2(O)C(O)=C3C(=O)c4c(O)cccc4[C@@](C)(O)[C@H]3C[C@@H]12 [Tetracycline]
E. coli AR-0349
  INT (S-R interpretation): R
  MIC (+3): >64 µg/mL
E. coli AR-0349; [3]
  MIC: > 64 µg/mL

## Gentamicin
E. coli AR-0349
  INT (S-R interpretation): S
  MIC: 0.5 µg/mL
  MIC (+3): 0.5 µg/mL

## Polymyxin B
E. coli AR-0349
  INT (S-R interpretation): R
  MIC: 16 µg/mL
  MIC (+3): 1 µg/mL
E. coli AR-0349; by 1 μg/mL of compound 3
  fold of potentiation: 16 fold
